Source: US20100190815A1, “HYPERTENSION-AMELIORATING AGENT” (KYOWA HAKKO BIO CO., LTD., priority 2006, published 2010)

System: spontaneously hypertensive rats (SHRs)
Assay: Systolic blood pressure by the tail-cuff method in spontaneously hypertensive rats, oral administration once daily for 29 days
Type: in vivo, rat
Conditions: for Systolic blood pressure compared with the 1st (vehicle) group: 5 mg/kg (2nd group), from Day 8 to the end of the test period; for Systolic blood pressure: male SHR/Izm rats, mean ± standard error, n=6
Method: The rats used were spontaneously hypertensive rats (SHRs). The systolic blood pressure levels of 18 male SHR/Izm rats (10 week olds; Japan SLC, Inc.) were measured on Day 1 of administration. The rats were divided into 3 groups of 6 rats in a manner such that the mean values of the groups were almost equivalent to one another. The groups were referred to as the 1st to the 3rd groups. A 0.5 w/v % methylcellulose aqueous solution was orally administered to the rats in the 1st group. A 0.5 w/v % methylcellulose aqueous solution containing pyrroloquinoline quinone disodium salt (hereinafter, referred to as PQQ disodium salt; Mitsubishi Gas Chemical Company, Inc.) suspended therein (1 mg/mL) was orally administered to the rats in the 2nd group. A 0.5 w/v % methylcellulose aqueous solution containing PQQ disodium salt suspended therein (4 mg/mL) was orally administered to the rats in the 3rd group. Oral administration was carried out in a volume of 5 mL/kg once daily for 29 days. The single dose of PQQ disodium salt was 5 mg/kg in the 2nd group and the same was 20 mg/kg in the 3rd group. On Days 1, 8, 15, 22, and 29 of administration, systolic blood pressure was measured before administration (24 hours after administration on the previous day) and 4 hours after administration of the PQQ disodium salt. Systolic blood pressure was measured by the tail-cuff method with the use of an unheated non-invasive blood pressure monitor for mice and rats (MK-2000, Muromachi Kikai Co., Ltd.). Measurement was carried out 5 times per instance. The mean value of three systolic blood pressure values obtained by excluding the highest value and the lowest value was determined to be the value for an individual rat. The value for each group was expressed as the mean value±standard error (n=6). A statistically significant difference was obtained at each measurement point by carrying out one-way analysis of variance. When the significance was confirmed by one-way analysis of variance, a parametric Dunnett's multiple comparison test was carried so that a significant difference between the 2nd and the 1st group and between the 3rd group and the 1st group were obtained. In addition, in a case in which there was a significance level (p value) of less than 0.05, it was determined that there was a significant difference.

O=C(O)c1cc(C(=O)O)c2c(n1)C(=O)C(=O)c1cc(C(=O)O)[nH]c1-2.[Na].[Na] [PQQ disodium salt, pyrroloquinoline quinone disodium salt]
Systolic blood pressure compared with the 1st (vehicle) group (4 hours after administration): lower than that for the 1st group | Systolic blood pressure compared with the 1st (vehicle) group (before administration): lower than that for the 1st group | Systolic blood pressure compared with the 2nd (5 mg/kg) group (20 mg/kg (3rd group), 4 hours after administration): lower than that for the 2nd group | Systolic blood pressure compared with the 1st (vehicle) group, significance (20 mg/kg (3rd group), 4 hours after administration on Day 29, Dunnett's test, p < 0.05): significantly lower than that for the 1st group | Systolic blood pressure compared with the 2nd (5 mg/kg) group (20 mg/kg (3rd group), before administration): lower than that for the 2nd group | Hypertension-ameliorating effect in hypertension rats (overall conclusion) (SHR rats, 5 and 20 mg/kg oral once daily for 29 days): blood pressure-reducing effects, namely, hypertension-ameliorating effects, were observed | Systolic blood pressure (5 mg/kg oral once daily (2nd group), Day 1, 4 hours after administration): 172 ± 4 mmHg | Systolic blood pressure (5 mg/kg oral once daily (2nd group), Day 1, before administration (baseline)): 172 ± 3 mmHg | Systolic blood pressure (5 mg/kg oral once daily (2nd group), Day 8, 4 hours after administration): 175 ± 3 mmHg | Systolic blood pressure (5 mg/kg oral once daily (2nd group), Day 8, before administration (24 hours after previous dose)): 177 ± 3 mmHg | Systolic blood pressure (5 mg/kg oral once daily (2nd group), Day 15, 4 hours after administration): 184 ± 3 mmHg | Systolic blood pressure (5 mg/kg oral once daily (2nd group), Day 15, before administration (24 hours after previous dose)): 185 ± 3 mmHg | Systolic blood pressure (5 mg/kg oral once daily (2nd group), Day 22, 4 hours after administration): 189 ± 3 mmHg | Systolic blood pressure (5 mg/kg oral once daily (2nd group), Day 22, before administration (24 hours after previous dose)): 189 ± 3 mmHg | Systolic blood pressure (5 mg/kg oral once daily (2nd group), Day 29, 4 hours after administration): 190 ± 1 mmHg | Systolic blood pressure (5 mg/kg oral once daily (2nd group), Day 29, before administration (24 hours after previous dose)): 190 ± 1 mmHg | Systolic blood pressure (20 mg/kg oral once daily (3rd group), Day 1, 4 hours after administration): 171 ± 3 mmHg | Systolic blood pressure (20 mg/kg oral once daily (3rd group), Day 1, before administration (baseline)): 172 ± 3 mmHg | Systolic blood pressure (20 mg/kg oral once daily (3rd group), Day 8, 4 hours after administration): 171 ± 2 mmHg | Systolic blood pressure (20 mg/kg oral once daily (3rd group), Day 8, before administration (24 hours after previous dose)): 174 ± 2 mmHg | Systolic blood pressure (20 mg/kg oral once daily (3rd group), Day 15, 4 hours after administration): 180 ± 3 mmHg | Systolic blood pressure (20 mg/kg oral once daily (3rd group), Day 15, before administration (24 hours after previous dose)): 182 ± 3 mmHg | Systolic blood pressure (20 mg/kg oral once daily (3rd group), Day 22, 4 hours after administration): 184 ± 3 mmHg | Systolic blood pressure (20 mg/kg oral once daily (3rd group), Day 22, before administration (24 hours after previous dose)): 184 ± 3 mmHg | Systolic blood pressure (20 mg/kg oral once daily (3rd group), Day 29, 4 hours after administration, p < 0.05 relative to the 1st (vehicle) group): 184 ± 3 mmHg | Systolic blood pressure (20 mg/kg oral once daily (3rd group), Day 29, before administration (24 hours after previous dose)): 186 ± 3 mmHg
